Calls of active or inactive are those of the source. The rule behind the calls is not given here.

Common to all, as to format: functional, cell-based
The test system of one assay is PC-3. As to the kind of experiment: Cytotoxicity against human PC3 cells after 72 hrs. The following applies: PC-3, 72 h.
Another assay concerns MCF7. The experiment in a line: Cytotoxicity against human MCF7 cells after 72 hrs. The following applies: MCF7, 72 h.
The next assay deals with A549. The experiment in a line: Cytotoxicity against human A549 cells after 72 hrs. The following applies: A549, 72 h.
For a further assay, the system named is NCI-H460. The experiment in a line: Cytotoxicity against human H460 cells after 72 hrs. The following applies: NCI-H460, 72 h.
For a further assay, the system named is OVCAR-3. The experiment in a line: Cytotoxicity against human OVCAR-3 cells after 72 hrs.

Broadly, the IC50 is the point on the concentration scale where inhibition reaches its midpoint. Regarding `CCNc1nc(N)c2ncnc-2c(N)n1`, the IC50 was > 800 µM in the assay with PC-3, > 800 µM in the assay on MCF7, 38 µM with A549 and 22 µM in the assay with NCI-H460. The result in the assay on OVCAR-3 was Active.
